Read-outs that look alike come from different tables or passages of the source. Marks after values point to notes of the source that are not given here.

Data on 1 molecule can be found in patent publication US20180250251A1, “Treatment of Patients with Familial Hypercholesterolemia on Lipid-Lowering Therapy” (Gemphire Therapeutics Inc., priority 2016, published 2018).

Series [1] has as its system patients with HoFH on stable, lipid-lowering therapy. Kind of series: COBALT-1 safety and tolerability. Type of series: in vivo, human. The text has this:
The safety variables include adverse events; safety laboratory parameters (chemistry, hematology, coagulation, and urinalysis) with particular attention to hepatic (e.g., alanine aminotransferase/aspartate aminotransferase, bilirubin, alkaline phosphatase), renal (e.g., blood urea nitrogen, serum creatinine, protein:creatinine ratio, urinalysis sediments, pH, electrolytes), and skeletal muscle (i.e., creatine kinase) toxicities; 12-lead electrocardiograms (ECGs); physical examinations; and vital signs.
Safety will be assessed using the population of all patients who receive any amount of study drug. The assessment of safety will include adverse events, clinical laboratory assessments, ECGs, physical examinations, and vital signs. The safety analysis will be based primarily on the frequency of new or worsening adverse events, laboratory abnormalities, and serious adverse events. Other safety data will be summarized as appropriate.
An adverse event can therefore be any unfavorable and/or unintended sign (including an abnormal laboratory finding), symptom, or disease temporally associated with the use of an investigational medicinal product, whether or not related to the investigational medicinal product. All adverse events, including observed or volunteered problems, complaints, or symptoms, are to be recorded on the appropriate eCRF.
The Investigator will assess the severity (intensity) of each adverse event as mild, moderate, or severe, and will also categorize each adverse event as to its potential relationship to study drug using the categories of Yes or No, as defined below.
Assessment of Severity: Mild—An event that is easily tolerated and generally not interfering with normal daily activities, Moderate—An event that is sufficiently discomforting to interfere with normal daily activities; Severe—An event that is incapacitating with inability to work or perform normal daily activities.
Safety and Tolerability of the treatments were monitored throughout the study.

For series [2], the system named is hypercholesterolemic patients on stable statin therapy. The settings on record: placebo group −6.2%, cited from earlier work.
For series [3] the following is noted: cited from earlier work.
Series [4] has as its system healthy adult subjects and patients. The settings on record: cited from earlier work.
Setting [5] is: 8 patients, 12 weeks gemcabene 300, 600, 900 mg/day.

Consider `CC(C)(CCCCOCCCCC(C)(C)C(=O)O)C(=O)O` [Gemcabene, 6-(5-Carboxy-5-methyl-hexyloxy)-2,2-dimethyl-hexanoic acid], for which, in series [1] (setting [5]), the “Any Treatment Emergent Adverse Events (TEAEs), Total Reported” value is on record as 27*; the “Deaths, Total Reported” value was determined as 0; the “Increase in ALT > 3 × ULN, Total Reported” value came to 0; the “Increase in serum creatinine > 3 × ULN, Total Reported” value came out at 0. In series [1] (setting [5]), the “Increase in total bilirubin > 3 × ULN, Total Reported” value was found to be 0; the “Myopathies, Total Reported” value is listed as 0; the “Serious Adverse Events (SAEs), Total Reported” value is 0; the “TEAEs possibly related to Gemcabene, Total Reported” value is on record as 8. Moreover, the “TEAEs resulting in discontinuation of Gemcabene, Total Reported” value in series [1] (setting [5]) is 0. For the same molecule, in series [1] (in combination with standard of care lipid modifying therapies), the safety and tolerability entry is “safe and well tolerated”. In series [2] (oral gemcabene 300 mg), the “LDL-C mean percent change” value is on record as −23.4%. Also, the “LDL-C mean percent change” value in series [2] (oral gemcabene 900 mg) is on record as −27.7%. Also, the “effect on QTc interval or blood pressure” value in series [3] (in vivo) is on record as “No clinically relevant effect”. Further, in series [3] (oral), the “absorption following oral administration” value was “rapidly absorbed” and the exposure versus dose result is reported as “increasing approximately linearly with dose”. The drug-drug interactions result in series [3] (with simvastatin (80 mg), atorvastatin (80 mg), or digoxin (0.25 mg)) was “No significant drug-drug interactions”. The “intensity of the majority of treatment-emergent adverse events” value in series [4] (across all clinical studies) is recorded as “mild to moderate”. The deaths entry in series [4] (across all previous studies) is recorded as “no deaths”. Further, in series [4] (human, in vivo), the “time for creatinine values to return to baseline after cessation of gemcabene” value is reported as “approximately 2 weeks”. Besides, the “glomerular filtration rate (GFR)” value in series [4] (iohexol clearance study) is given as “slightly decreased”. Also, the “treatment-related SAEs” value in series [4] (prior clinical studies) was “no treatment-related SAEs reported”. Also, the tolerability result in series [4] (prior clinical studies, single doses up to 1500 mg and multiple doses up to 900 mg for up to 12 weeks) is “well tolerated”. Further, the “serum creatinine and blood urea nitrogen (BUN)” value in series [4] (some studies, appeared within the first 2 to 4 weeks, no further increase over time) is given as “Small mean increases”.
